Paper PMC10419174, “WR1065 conjugated to thiol-PEG polymers as novel anticancer prodrugs: broad spectrum efficacy, synergism, and drug resistance reversal” (Frontiers in Oncology, 2023)
Like-named read-outs stand apart in the source and are kept apart here. Marks after values point to notes of the source that are not given here.

Columns and labels:
Lung A549 cells [1] = tested on: Lung A549 cells; design: method as in PMID 29258181, PMID 12507923, PMID 35770045, PMID 31488557; details: cited from earlier work
Lung NCI-H460 cells [2] = tested on: Lung NCI-H460 cells; design: method as in PMID 29258181, PMID 12507923, PMID 35770045, PMID 31488557; details: cited from earlier work
Lung NCI-H1975 cells = tested on: Lung NCI-H1975 cells; design: method as in PMID 29258181, PMID 12507923, PMID 35770045, PMID 31488557; details: cited from earlier work
[3] = tested on: Acute promyelocytic HL60 leukemia cells; design: method as in PMID 29258181, PMID 12507923, PMID 35770045, PMID 31488557; details: cited from earlier work
Ovary SKOV3 cells [4] = tested on: Ovary SKOV3 cells; design: method as in PMID 29258181, PMID 12507923, PMID 35770045, PMID 31488557; details: cited from earlier work
[5] = tested on: Mammary gland HCC38 cells; test: CyQUANT-NF proliferation assay, 48-h drug treatment; format: cell-based; details: 48-h treatment, amifostine ND = not definable up to 500 µM
[6] = tested on: Mammary gland MDA-MB-231 cells; test: as above; format: cell-based; details: Homo sapiens, MDA-MB-231; 48-h treatment; amifostine ND = not definable up to 500 µM
Description: Since the BRG prodrugs are composed of WR1065 as one of the major constituents, assays were conducted to determine if factors reported to modulate the activity of amino acid and polyamine plasma membrane transport systems impacted the efficacy of 4SP65 or 1LP65 in selected cancer cell lines. HL60 cells were exposed to 4SP65 with up to 0.5 mM NaCl, MBA-MD-231 cells were tested in the presence and absence of medium supplemented with estradiol plus insulin (in the BulletKit™ for growth supplements for NHMECs), HCC38 cells were exposed to 4SP65 with and without 10 µM insulin added to the growth medium, and multiple cells lines were pretreated for 24 h with 1 mM DFMO prior to starting exposures to 4SP65.
(§1) The percentage of growth inhibition was calculated as follows: […]

A549 NSCLC cells = test: cells
Description: as §1

[7] = tested on: Malignant pleural mesothelioma PPMMill cells; test: cells; details: 48 h
Description: as §1

NCI-H1975 NSCLC cells = test: cells; details: Homo sapiens, NCI-H1975, 48 h
Description: as §1

Ovary SKOV3 cells [8] = test: cells
Description: as §1

Ovary TOV21G cells = test: cells
Description: as §1

Pancreas PANC-1 cells [9] = test: cells; details: Homo sapiens, PANC-1, 48 h
Description: as §1

Prostate DU145 cells [10] = test: cells; details: Homo sapiens, DU-145, 48 h
Description: as §1

Prostate LNCaP cells = test: cells; details: Homo sapiens, LNCaP, 48 h
Description: as §1

Prostate PC3 cells [11] = test: cells
Description: as §1

human cancer cell lines = test: cells; details: for cytolytic effects: exposure levels up to 500 µM, 48 h; for GI50: Homo sapiens
Description: as §1

[12] = tested on: human Hec50co (p53-null) endometrial tumor xenografts; details: single agent; cited from earlier work
[13] = tested on: Malignant pleural mesothelioma HMESO1 cells; details: drug alone, 48 h, 4SP65/cisplatin study
Description: as §1

NCI-H460 NSCLC cells = details: drug alone, 48 h, 4SP65/cisplatin study
Description: To test anticancer effectiveness of individual drugs or drug combinations, the CyQUANT®-NF proliferation assay was used with a plate reader (i) to generate standard curves for cell numbers for each cell line, (ii) to measure the starting cell numbers at initiation of drug treatment, and (iii) to obtain fluorescence readings from cells in 96-well plates for comparisons to a standard curve for the relevant cancer cell line and quantifying cell viability after drug treatments. […] Trypan blue exclusion was used to estimate cell numbers in a few pilot experiments and thereafter was applied to confirm very low viable cell numbers and cell death.
A series of experiments was conducted to determine the relative efficacy of 4SP65, 1LP65, and amifostine as single agents in the same human cancer cell lines.
Five metrics were calculated and used to characterize the shape of the dose-response curve following exposure to a single test agent. Using cell numbers based on fluorescence measurements and standard curves, the percentage growth was calculated at each drug concentration level. The percentage of growth inhibition was calculated as follows:
where Tz = cell numbers or fluorescence counts at time xero, C = vehicle-exposed control cell numbers at the end of the assessment time period, and Ti = test agent-exposed cell numbers or fluorescence counts at each drug concentration. […] The LC50/99 was calculated using Equation 2 = -50 and Eq. 2 = -99, respectively. […] For NHMECs, the relationships between drug exposure levels and fluorescence units were used to define dose-response metrics. The selectivity index values for individual drugs were calculated using IC50 levels in NHMECs divided by the IC50 value for each cancer cell line. Statistical comparisons of differences in individual dose-response metrics between drug treatments and cell lines were conducted using Student’s t-test, with P-values <0.05 considered significant.
Relative cell growth inhibition values for differing levels of each drug alone and in combination were input into SynergyFinder to generate dose-response curves for each drug alone and to produce a dose-response matrix. The dose-response matrix data then were used in generating a two-dimension heatmap and three-dimension volcano plot to visualize the distribution of areas of differing degrees of synergism and to calculate average and maximum synergy scores in selected human cancer cell lines. The expected drug combination responses were calculated using both the Highest Single Agent (HSA) model and the Zero interaction potency (ZIP) model.

Prostate DU145 cells [14] = tested on: Prostate DU145 cells; design: method as in NCI Database of Screening Results; details: ref NCI Database of Screening Results; cited from earlier work
Lung A549 cells [15] = details: cited from earlier work; for GI50 / TGI: ref NCI Database of Screening Results
Lung NCI-H460 cells [16] = details: cited from earlier work; for GI50 / TGI: ref NCI Database of Screening Results
[17] = tested on: Mammary gland MDA-MB-231 cells; details: cited from earlier work; for GI50: ref NCI Database of Screening Results
Prostate PC3 cells [18] = details: cited from earlier work
Ovary SKOV3 cells [19] = details: cited from earlier work; for GI50 / TGI: ref NCI Database of Screening Results
[20] = cited from earlier work
[21] = tested on: Mammary gland MDA-MB-231 cells; design: method as in PMID 29258181, PMID 12507923, PMID 35770045, PMID 31488557; details: cited from earlier work
Pancreas PANC-1 cells [22] = tested on: Pancreas PANC-1 cells; design: method as in PMID 29258181, PMID 12507923, PMID 35770045, PMID 31488557; details: cited from earlier work
[23] = tested on: Acute promyelocytic HL60 leukemia cells; details: cited from earlier work
[24] = tested on: temperature-dependent p53 mutants; design: method as in PMID 11429700, PMID 11870884, PMID 22710932, PMID 17724467; details: 11 temperature-dependent mutants analyzed; cited from earlier work
[25] = ND = not definable, highest concentration in parentheses
[26] = drug alone, 48 h, 4SP65/cisplatin study
[27] = drug alone, 4SP65/cisplatin study
[28] = drug alone, 4SP65/cisplatin study, ND = not definable, highest concentration in parentheses
[29] = drug alone, 48 h, 4SP65/cisplatin study, ND = not definable, highest concentration in parentheses
[30] = ref NCI Database of Screening Results

Compound: COCC1(CO)C(=O)C2CCN1CC2 (stereo not drawn) [APR-246]
- IC50 (Lung A549 cells [1]): 29 µM
- IC50 (Lung NCI-H460 cells [2]): 225 µM
- IC50 (Lung NCI-H1975 cells): 9.6 µM
- IC50 [3]: ~20 µM
- IC50 (Ovary SKOV3 cells [4]): 16.7 µM

Compound: NCCCNCCSP(=O)(O)O [Amifostine, amifostine, reference compound]
- TGI [5]: 254 ± 123 µM
- GI50 ([5]; Homo sapiens, HCC38): 78.1 ± 35.7 µM
- IC50 ([5]; Homo sapiens, HCC38): 276 ± 92 µM
- GI50 [6]: 241 ± 130 µM
- GI50 (A549 NSCLC cells; Homo sapiens, A549, 48 h): 241 ± 130 µM
- IC50 (A549 NSCLC cells; Homo sapiens, A549, 48 h): 261 ± 120 µM
- GI50 ([7]; Homo sapiens): 378 ± 122 µM
- GI50 (NCI-H1975 NSCLC cells): 130 ± 26 µM
- GI50 (Ovary SKOV3 cells [8]; Homo sapiens, SK-OV-3, 48 h): 81 ± 13 µM
- IC50 (Ovary SKOV3 cells [8]; Homo sapiens, SK-OV-3, 48 h): 294 ± 119 µM
- GI50 (Ovary TOV21G cells; Homo sapiens, TOV21G, 48 h): 47 ± 10 µM
- IC50 (Ovary TOV21G cells; Homo sapiens, TOV21G, 48 h): 57 ± 9 µM
- GI50 (Pancreas PANC-1 cells [9]): 113 ± 39 µM
- GI50 (Prostate DU145 cells [10]): 126 ± 28 µM
- IC50 (Prostate DU145 cells [10]): 319 ± 105 µM
- GI50 (Prostate LNCaP cells): 150 ± 47 µM
- IC50 (Prostate LNCaP cells): 378 ± 122 µM
- TGI (Prostate PC3 cells [11]; 48-h treatment, amifostine ND = not definable up to 500 µM): 301 ± 115 µM
- GI50 (Prostate PC3 cells [11]; Homo sapiens, PC-3, 48 h): 53 ± 10 µM
- IC50 (Prostate PC3 cells [11]; Homo sapiens, PC-3, 48 h): 103 ± 15 µM
- LC50 (human cancer cell lines): Not definable ^k
- cancer cell lines with limited cytostatic effects (human cancer cell lines; 14 cell lines): 11/14
- cytolytic effects (human cancer cell lines; 14 cell lines): no cytolytic effects
- cytolytic effects (human cancer cell lines; 14 cell lines, listed as amifostine): not found in any cell line
- LC99 (human cancer cell lines; 14 cell lines, highest concentration 500 µM): Not definable ^k
- GI50 (human cancer cell lines; read-out: GI50 average, GI50 values >100 µM in 7/14 cell lines): 149 µM
- GI50 (human cancer cell lines; read-out: GI50 range, GI50 values <100 µM in 4/14 cell lines: HCC38, PC3, SKOV3, TOV21G): 47 to 81 µM
- GI50 (human cancer cell lines; read-out: GI50 range, seven of 14 cell lines): 113 to 378 µM
- GI50 (human cancer cell lines; read-out: average GI50, four cell lines where amifostine GI50 <100 µM): 64.8 µM
- TGI average (human cancer cell lines; only two cell lines, HCC38 and PC3): 278 ± 24 ^j µM
- inhibition of tumor xenograft growth compared to tumor size at start of treatment [12]: ~ 50%

Compound: N.N.[Cl][Pt][Cl] [Cisplatin, cisplatin, reference compound]
- GI50 [13]: 3 ± 0.4 µM
- IC50 [13]: 8.6 ± 1.1 µM
- TGI [13]: 6.7 ± 0.7 µM
- LC99 [13, 25]: ND (>15) µM
- gains of cytostatic and cytolytic activities, range (A549 NSCLC cells; 4SP65-cisplatin combined): 1.7- to 3.5 fold
- LC99, drug in combination (CMB) (A549 NSCLC cells; amount of each drug in combination, ratio 50% 4SP65:50% DDP, 48 h): 7 µM
- GI50 (A549 NSCLC cells; [26]): 3.5 ± 0.7 µM
- IC50 (A549 NSCLC cells; [26]): 4.7 ± 0.8 µM
- LC99 (A549 NSCLC cells; [26]): 24.4 ± 2.6 µM
- TGI (A549 NSCLC cells; [26]): 8.2 ± 1.0 µM
- GI50 [7, 27]: 27.2 ± 3.4 µM
- IC50 [7, 27]: 40.5 ± 8.1 µM
- LC99 [7, 28]: ND (>100) µM
- TGI [7, 28]: ND (>100) µM
- GI50 (Ovary SKOV3 cells [8]; [26]): 5.3 ± 0.4 µM
- IC50 (Ovary SKOV3 cells [8]; [26]): 6.7 ± 0.6 µM
- LC99 (Ovary SKOV3 cells [8]; [29]): ND (>21) µM
- TGI (Ovary SKOV3 cells [8]; [29]): ND (>21) µM
- gains in total growth inhibition and cytolytic effects, range (Ovary TOV21G cells; 4SP65-cisplatin combined): 1.3- to 2.9 fold
- LC99, drug in combination (CMB) (Ovary TOV21G cells; amount of each drug in combination, ratio 14% 4SP65:86% DDP, 48 h): 5.9 µM
- GI50 (Ovary TOV21G cells; [26]): 2.2 ± 0.4 µM
- IC50 (Ovary TOV21G cells; [26]): 3 ± 0.3 µM
- LC99 (Ovary TOV21G cells; [26]): 17.2 µM
- TGI (Ovary TOV21G cells; [26]): 6.7 ± 0.3 µM
- LC99 (Ovary TOV21G cells; drug alone, 48 h, 4SP65/cisplatin study, listed as DDP): 17.2 ± 5.2 µM
- gains of cytostatic and cytolytic activities, range (human cancer cell lines; 4SP65-cisplatin combined, H460, HMESO1, PPMMill, SKOV3): 1.7- to 6.9 fold
- GI50 (NCI-H460 NSCLC cells): 3.1 ± 0.1 µM
- IC50 (NCI-H460 NSCLC cells): 4 ± 0.1 µM
- LC99 (NCI-H460 NSCLC cells; [25]): ND (>15) µM
- TGI (NCI-H460 NSCLC cells; [25]): ND (>15) µM
- GI50 (Prostate DU145 cells [14]): 2 µM
- GI50 (Lung A549 cells [15]): 3.8 µM
- TGI (Lung A549 cells [15]): >100 µM
- GI50 (Lung NCI-H460 cells [16]): 0.6 µM
- TGI (Lung NCI-H460 cells [16]): >100 µM
- GI50 [17]: 22.4 µM
- GI50 (Prostate PC3 cells [18]; [30]): 5 µM
- GI50 (Ovary SKOV3 cells [19]): 2.5 µM
- TGI (Ovary SKOV3 cells [19]): >100 µM

Compound: COc1cc2ncnc(Nc3ccc(F)c(Cl)c3)c2cc1OCCCN1CCOCC1 [GEF, gefitinib, reference compound]
- trough levels ([20]; 250 mg daily, after 3 days of treatment): 0.257−4.50 µM
- trough levels ([20]; 250 mg daily, after 8 days of treatment): 0.282−6.55 µM
- Cmax ([20]; 250 mg daily, printed 'or more', read-out: Cmax plasma concentrations): 500 to 1000 nM
- elimination half-life [20]: 48 h

Compound: O=C1C2CCN(CC2)C1(CO)CO [PRIMA-1]
- GI50 (Lung A549 cells [1]): 63 µM
- GI50 (Lung NCI-H460 cells [2]): 40 µM
- IC50 [21]: 141 µM
- GI50 (Ovary SKOV3 cells [4]): 63 µM
- IC50 (Pancreas PANC-1 cells [22]): 66 µM

Compound: CC(=O)O[C@H]1C(=O)[C@@]2(C)[C@H]([C@H](OC(=O)c3ccccc3)[C@]3(O)C[C@H](OC(=O)[C@H](O)[C@@H](NC(=O)c4ccccc4)c4ccccc4)C(C)=C1C3(C)C)[C@]1(OC(C)=O)CO[C@@H]1C[C@@H]2O [Paclitaxel, paclitaxel]
- GI50 (Prostate DU145 cells [14]): 1.9 µM
- TGI (Prostate DU145 cells [14]): >100 µM
- inhibition of tumor xenograft growth compared to tumor size at start of treatment [12]: ~ 50%
- CC50 (Lung A549 cells [15]): > 100 µM
- GI50 (Lung A549 cells [15]): 9.2 µM
- TGI (Lung A549 cells [15]): >100 µM
- CC50 (Lung NCI-H460 cells [16]): > 100 µM
- GI50 (Lung NCI-H460 cells [16]): 5.8 µM
- TGI (Lung NCI-H460 cells [16]): 90.4 µM
- CC50 [23]: > 100 µM
- GI50 [23, 30]: 25.8 µM
- TGI [23, 30]: >100 µM
- CC50 [17]: > 100 µM
- GI50 [17]: 6.4 µM
- CC50 (Prostate PC3 cells [18]): > 100 µM
- GI50 (Prostate PC3 cells [18]; [30]): 36.4 µM
- TGI (Prostate PC3 cells [18]; [30]): >100 µM
- CC50 (Ovary SKOV3 cells [19]): > 100 µM
- GI50 (Ovary SKOV3 cells [19]): 0.52 µM
- TGI (Ovary SKOV3 cells [19]): 5.2 µM

Compound: NCCCNCCS [WR1065, 2-[(3-aminopropyl)amino]ethanethiol]
- p53 mutants reactivated to some degree [24]: 8/11
